Measured values as given in PMC12655637, “Design, Synthesis, and Mechanistic Study of Novel Ciprofloxacin/Thiazole Chalcone Hybrids as Potential Anticancer Agents” (Pharmaceuticals, 2025).

Legend:
[1] = test system: MALME-3M; test: NCI-60 screening, one-dose (10 µM) and five-dose, SRB; format: cell-based, human; conditions: five-dose
[2] = test system: SK-MEL-2; test: as above; format: cell-based, human
[3] = test system: SK-MEL-5; test: as above; format: cell-based, human
[4] = test system: IGROV1; test: as above; format: cell-based, human
[5] = test system: OVCAR-3; test: as above; format: cell-based
[6] = test system: SK-OV-3; test: as above; format: cell-based, human
[7] = test system: ACHN; test: as above; format: cell-based, human
[8] = test system: CAKI-1; test: as above; format: cell-based
[9] = test system: RXF 393; test: as above; format: cell-based; conditions: Homo sapiens; 10 μM; RXF 393, Renal Cancer; read-out: Growth percentage
[10] = test system: SN12C; test: as above; format: cell-based, human
[11] = test system: TK-10; test: as above; format: cell-based, human
[12] = test system: PC-3; test: as above; format: cell-based, human
[13] = test system: MDA-MB231/ATCC; test: as above; format: cell-based
[14] = test system: HS 578T; test: as above; format: cell-based, human
[15] = test system: MDA-MB-468; test: as above; format: cell-based, human; conditions: five-dose, MDA-MB-468
From the text: Control cells Test cells FLD
available usually at NCI library.
An aliquot of frozen drug concentrate is […]

[16] = test system: Non-Small-Cell Lung Cancer cell lines; test: NCI five-dose testing, subpanel (MID b, selectivity)
From the text: The log10 GI50, log10 TGI, and log10 LC50 values were subsequently calculated as the averages of the log10 values of the respective individual GI50, TGI, and LC50 measurements. Negative numbers signified the most sensitive cell lines.
One way to measure a compound’s selectivity is to divide its subpanel MID^b (in μM) by the MID^a (in μM), which is the average sensitivity of all cell lines to the test agent.
At the National Cancer Institute (NCI) in Bethesda, USA, researchers examined the anticancer potential of the target compounds under investigation using nine panels of sixty different cell lines obtained from nine different cancers that were housed in the NCI library. […] The anticancer screening was carried out at a single dose of 10^−5 M; the results obtained were expressed as growth inhibition (%).
The anti-cancer potential of the tested compounds was evaluated at the National cancer institute (NCI), Bethesda, USA, against 9 panels of 60 various cell lines derived from nine human tumours available usually at NCI library. […] The anticancer screening was carried out at single dose of 10^-5 M. The results obtained as growth inhibition (%).
Cell lines were grown in Roswell Park Memorial Institute medium (RPMI) with 5% fetal bovine serum and 2% μM L-glutamine. Cancer cells are inoculated into 96 well microtiter plates in 100 μL at plating densities ranging from 5000 to 40,000 cells/well depending on the doubling time of individual cell lines. Then microtiter plates are incubated at 37 °C, 5% CO2, 95% air and 100% relative humidity for 24 h prior to the addition of the tested compounds. After 24 h, two plates of each cell line are fixed in situ with trichloroacetic acid (TCA). The tested compounds were dissolved in dimethyl sulfoxide (DMSO) and stored in the freezer prior to use. An aliquot of frozen drug concentrate is diluted to the desired concentration with complete medium containing 50 μg/mL gentamicin.
compounds were added to the microtiter plates followed by incubation for further 48 h at 37 °C, 5% CO2, 95% air and 100% relative humidity. Fixation of cancer cell lines is carried out through gentle addition of 50 μL of cold 50 %w/v TCA (final concentration, 10% TCA) then incubated for 60 min. at 4 °C. The plates are washed five times with tap water after getting rid of the supernatant and allowed to dry in air. Sulforhodamine B (SRB) solution (100 μL) at 0.4% w/v in 1% acetic

[17] = Homo sapiens, read-out: LC50 (the source's name)
[18] = Homo sapiens, five-dose, SK-MEL-2
[19] = Homo sapiens, five-dose, SK-MEL-5
[20] = Homo sapiens, IGROV-1, five-dose, IGROV1
[21] = Homo sapiens, five-dose, OVCAR-3
[22] = Homo sapiens, 10 μM, Renal Cancer, read-out: Growth percentage
[23] = Homo sapiens, five-dose, read-out: LC50 (the source's name)
[24] = Homo sapiens, five-dose, CAKI-1

Cc1nc(SCC(=O)N2CCN(c3cc4c(cc3F)c(=O)c(C(=O)O)cn4C3CC3)CC2)sc1C(=O)/C=C/c1cccc(Cl)c1 [Compound 4b, (E)-7-(4-(2-((5-(3-(3-Chlorophenyl)acryloyl)-4-methylthiazol-2-yl)thio)acetyl)piperazin-1-yl)-1-cyclopropyl-6-fluoro-4-oxo-1,4-dihydroquinoline-3-carboxylic Acid]
IC50 ([1]; Homo sapiens): > 100 µM
CC50 [1, 17]: > 100 µM
TGI [1]: 100.0 µM
activity at 10 µM ([2]; Homo sapiens, 10 μM, SK-MEL-2, Melanoma, read-out: Growth percentage): 60.8%
GI50 [2, 18]: 46.8 µM
IC50 [2, 18]: > 100 µM
CC50 ([2]; Homo sapiens, five-dose, SK-MEL-2, read-out: LC50 (the source's name)): > 100 µM
TGI ([2]; five-dose, SK-MEL-2): 100.0 µM
activity at 10 µM ([3]; Homo sapiens, 10 μM, SK-MEL-5, Melanoma, read-out: Growth percentage): 50.3%
GI50 [3, 19]: 21.9 µM
IC50 [3, 19]: > 100 µM
CC50 ([3]; Homo sapiens, five-dose, SK-MEL-5, read-out: LC50 (the source's name)): > 100 µM
TGI ([3]; five-dose, SK-MEL-5): 100.0 µM
Growth percentage ([4]; 10 μM, IGROV1, Ovarian Cancer): 73.9%
GI50 [4, 20]: > 100 µM
IC50 [4, 20]: > 100 µM
CC50 ([4]; Homo sapiens, IGROV-1, five-dose, IGROV1, read-out: LC50 (the source's name)): > 100 µM
TGI ([4]; five-dose, IGROV1): 100.0 µM
activity at 10 µM ([5]; Homo sapiens, 10 μM, OVCAR-3, Ovarian Cancer, read-out: Growth percentage): 13.9%
GI50 [5, 21]: 22.9 µM
IC50 [5, 21]: 41.7 µM
CC50 ([5]; Homo sapiens, five-dose, OVCAR-3, read-out: LC50 (the source's name)): > 100 µM
TGI ([5]; five-dose, OVCAR-3): 52.5 µM
activity at 10 µM ([6]; Homo sapiens, 10 μM, SK-OV-3, Ovarian Cancer, read-out: Growth percentage): 46.3%
IC50 ([6]; Homo sapiens, five-dose, SK-OV-3): > 100 µM
CC50 ([6]; Homo sapiens, five-dose, SK-OV-3, read-out: LC50 (the source's name)): > 100 µM
TGI ([6]; five-dose, SK-OV-3): 100.0 µM
activity at 10 µM [7, 22]: 99.1%
GI50 ([7]; Homo sapiens, five-dose): > 100 µM
IC50 ([7]; Homo sapiens, five-dose): > 100 µM
CC50 [7, 23]: > 100 µM
TGI ([7]; five-dose): 100.0 µM
activity at 10 µM ([8]; Homo sapiens, 10 μM, CAKI-1, Renal Cancer, read-out: Growth percentage): 102%
GI50 [8, 24]: 87.1 µM
IC50 [8, 24]: > 100 µM
CC50 ([8]; Homo sapiens, five-dose, CAKI-1, read-out: LC50 (the source's name)): > 100 µM
TGI ([8]; five-dose, CAKI-1): 100.0 µM
activity at 10 µM [9]: -8.1%
activity at 10 µM [10, 22]: 51%
GI50 ([10]; Homo sapiens, five-dose): 44.7 µM
IC50 ([10]; Homo sapiens, five-dose): > 100 µM
CC50 [10, 23]: > 100 µM
TGI ([10]; five-dose): 100.0 µM
activity at 10 µM ([11]; Homo sapiens, 10 μM, TK-10, Renal Cancer, read-out: Growth percentage): 108%
GI50 ([11]; Homo sapiens, five-dose, TK-10): > 100 µM
IC50 ([11]; Homo sapiens, five-dose, TK-10): > 100 µM
CC50 ([11]; Homo sapiens, five-dose, TK-10, read-out: LC50 (the source's name)): > 100 µM
TGI ([11]; five-dose, TK-10): 100.0 µM
activity at 10 µM ([12]; Homo sapiens, 10 μM, PC-3, Prostate Cancer, read-out: Growth percentage): 74.1%
GI50 ([12]; Homo sapiens, five-dose, PC-3): 55 µM
IC50 ([12]; Homo sapiens, five-dose, PC-3): > 100 µM
CC50 ([12]; Homo sapiens, five-dose, PC-3, read-out: LC50 (the source's name)): > 100 µM
TGI ([12]; five-dose, PC-3): 100.0 µM
GI50 ([13]; Homo sapiens, MDA-MB-231): > 100 µM
IC50 ([13]; Homo sapiens, MDA-MB-231): > 100 µM
CC50 ([13]; Homo sapiens, five-dose, MDA-MB-231/ATCC, read-out: LC50 (the source's name)): > 100 µM
TGI ([13]; five-dose, MDA-MB-231/ATCC): 100.0 µM
activity at 10 µM ([14]; Homo sapiens, 10 μM, Breast Cancer, read-out: Growth percentage): 61.5%
GI50 ([14]; Homo sapiens, five-dose): 18.6 µM
IC50 ([14]; Homo sapiens, five-dose): 70.8 µM
CC50 [14, 23]: > 100 µM
TGI ([14]; five-dose): 75.9 µM
GI50 ([15]; Homo sapiens): 3.9 µM
IC50 ([15]; Homo sapiens): > 100 µM
CC50 [15, 17]: > 100 µM
TGI [15]: 15.5 µM
SI ([16]; full-panel MG-MID / subpanel MG-MID, Non-Small-Cell Lung Cancer): 0.73
MG-MID ([16]; mean activity across subpanel Non-Small-Cell Lung Cancer): 96.35 µM
